Patent publication US20110236325A1, “METHODS TO TREAT OR PREVENT A SKIN CONDITION USING A NELL1 PEPTIDE” (NellOne Therapeutics, Inc., priority 2010, published 2011)

Experiments:
EFT-400 tissues [1] = assay: Sunburned cell counts in UV-irradiated EpiDerm-FT (EFT-400) skin model tissues, H&E histology; type: cell-based, human
Protocol: Packaged tissues were stored at 4° C. overnight and then re-equilibrated in EFT-400-ASY medium overnight prior to the start of experiments. The sample size was n=3 for each treatment group in the gene expression experiments; and n=6 (two independent experiments of n=3) for the sunburned cell counts.
Treated and untreated tissues were exposed to UV irradiation with 200 mJ/cm^2UVB/29.94 mW/cm^2UVA simulated solar UV light (Honle-500 solar lamp).
(§1) At the conclusion of the 24 hour post-irradiation period, EFT-400 tissues were fixed in 10% formalin for 2 hours at room temperature (two independent experiments with n=3). Formalin fixed tissues were embedded in paraffin and 6 micron slices were stained with haematoxylin and eosin (H&E).

EFT-400 tissues [2] = assay: Adverse effects of treatment on EFT-400 tissues (H&E stained histology); settings: 50 μM in the basolateral medium
Protocol: as §1

EFT-400 tissues [3] = assay: Gene expression by quantitative PCR custom array in EFT-400 tissues with or without UV irradiation; settings: for AVG Ct ACTB (housekeeping gene) / AVG Ct AQP3 / AVG Ct BCL2L1 / AVG Ct COL1A1 / AVG Ct COL4A2 / AVG Ct COL5A1 / AVG Ct COL6A1 / AVG Ct COL6A2 / AVG Ct COL7A1 / AVG Ct COL8A1 / AVG Ct COL11A1 / AVG Ct COL12A1 / AVG Ct COL14A1 / AVG Ct COL15A1 / AVG Ct COL16A1 / AVG Ct CYP2E1 / AVG Ct DSG1 / AVG Ct ERCC1 / AVG Ct FN1 / AVG Ct GAPDH (housekeeping gene) / AVG Ct GDF15 / AVG Ct GSTM3 / AVG Ct HSPA8 / AVG Ct IL1A / AVG Ct IL1B / AVG Ct IL8 / AVG Ct KAL1 / AVG Ct KRT16 / AVG Ct LAMA1 / AVG Ct LAMA2 / AVG Ct LAMA3 / AVG Ct LAMA5 / AVG Ct LAMB1 / AVG Ct LAMB3 / AVG Ct LAMC1 / AVG Ct MMP1 / AVG Ct MMP2 / AVG Ct MT2A / AVG Ct PCNA / AVG Ct RPL13A (housekeeping gene) / AVG Ct SIRT1 / AVG Ct TGFBI / AVG Ct THBS3 / AVG Ct TNC / AVG Ct VTN: 50 uM Genistein
Protocol: EpiDerm-FT™ (EFT-400) tissues were produced and packaged in the MatTek Corporation GMP tissue culture production laboratories following standard procedures. Packaged tissues were stored at 4° C. overnight and then re-equilibrated in EFT-400-ASY medium overnight prior to the start of experiments. The sample size was n=3 for each treatment group in the gene expression experiments; and n=6 (two independent experiments of n=3) for the sunburned cell counts.
Total RNA was isolated from the EFT-400 tissues (RNAqueous kit, Ambion) (n=3) and utilized for gene expression analysis by quantitative PCR on an SABioscience custom array containing 42 Human Extracellular Matrix (ECM) and Adhesion Molecules RT^2 Profiler™ PCR Array, stress and toxicity genes whose expression, based on MatTek data, are known to be dramatically altered by UV-protective compounds on UV damaged skin. […] Further, there were three internal control spots on the array that corresponded to human genomic DNA contamination (HGDC), positive PCR control (PPC), and reverse transcription control (RTC).

O=c1c(-c2ccc(O)cc2)coc2cc(O)cc(O)c12 [Genistein, reference compound]
sunburned cell formation (EFT-400 tissues [1]; 50 μM, 200 mJ/cm2 UVB/29.94 mW/cm2 UVA, 24 hour post irradiation): did not decrease sunburned cell formation to the same extent as 100 ng/ml NELL1
number of sunburned cells as compared to UV-only controls (EFT-400 tissues [1]; pre-treatment 30 minutes prior to UV, continued 24 hours post-irradiation): statistically significant reduction in the number of sunburned cells
adverse effects on the EFT-400 tissues (EFT-400 tissues [2]): did not produce any noteworthy adverse effects
activity in producing the observed effects (sunburned cells, gene expression) (EFT-400 tissues [3]; NELL1 protein at 100 ng/ml, genistein at 50 μM): most active in producing the observed effects
AVG Ct ACTB (housekeeping gene) (EFT-400 tissues [3]; No UV): 18.95
AVG Ct AQP3 (EFT-400 tissues [3]; No UV): 23.75
AVG Ct BCL2L1 (EFT-400 tissues [3]; No UV): 24.35
AVG Ct COL1A1 (EFT-400 tissues [3]; No UV): 18.66
AVG Ct COL4A2 (EFT-400 tissues [3]; No UV): 26.06
AVG Ct COL5A1 (EFT-400 tissues [3]; No UV): 23.19
AVG Ct COL6A1 (EFT-400 tissues [3]; No UV): 19.41
AVG Ct COL6A2 (EFT-400 tissues [3]; No UV): 19.82
AVG Ct COL7A1 (EFT-400 tissues [3]; No UV): 26.3
AVG Ct COL8A1 (EFT-400 tissues [3]; No UV): 28.27
AVG Ct COL11A1 (EFT-400 tissues [3]; No UV): 27.54
AVG Ct COL12A1 (EFT-400 tissues [3]; No UV): 25.19
AVG Ct COL14A1 (EFT-400 tissues [3]; No UV): 26.08
AVG Ct COL15A1 (EFT-400 tissues [3]; No UV): 25.73
AVG Ct COL16A1 (EFT-400 tissues [3]; No UV): 24.6
AVG Ct CYP2E1 (EFT-400 tissues [3]; No UV): 31.05
AVG Ct DSG1 (EFT-400 tissues [3]; No UV): 20.31
AVG Ct ERCC1 (EFT-400 tissues [3]; No UV): 24.94
AVG Ct FN1 (EFT-400 tissues [3]; No UV): 21.06
AVG Ct GAPDH (housekeeping gene) (EFT-400 tissues [3]; No UV): 17.74
AVG Ct GDF15 (EFT-400 tissues [3]; No UV): 27.52
AVG Ct GSTM3 (EFT-400 tissues [3]; No UV): 29.01
AVG Ct HSPA8 (EFT-400 tissues [3]; No UV): 20.53
AVG Ct IL1A (EFT-400 tissues [3]; No UV): 25.92
AVG Ct IL1B (EFT-400 tissues [3]; No UV): 29.03
AVG Ct IL8 (EFT-400 tissues [3]; No UV): 23.12
AVG Ct KAL1 (EFT-400 tissues [3]; No UV): 31.59
AVG Ct KRT16 (EFT-400 tissues [3]; No UV): 17.11
AVG Ct LAMA1 (EFT-400 tissues [3]; No UV): 29.54
AVG Ct LAMA2 (EFT-400 tissues [3]; No UV): 25.35
AVG Ct LAMA3 (EFT-400 tissues [3]; No UV): 24.25
AVG Ct LAMA5 (EFT-400 tissues [3]; No UV): 27.39
AVG Ct LAMB1 (EFT-400 tissues [3]; No UV): 23.3
AVG Ct LAMB3 (EFT-400 tissues [3]; No UV): 25.31
AVG Ct LAMC1 (EFT-400 tissues [3]; No UV): 23.09
AVG Ct MMP1 (EFT-400 tissues [3]; No UV): 22.22
AVG Ct MMP2 (EFT-400 tissues [3]; No UV): 19.2
AVG Ct MT2A (EFT-400 tissues [3]; No UV): 18.74
AVG Ct PCNA (EFT-400 tissues [3]; No UV): 23.76
AVG Ct RPL13A (housekeeping gene) (EFT-400 tissues [3]; No UV): 20.65
AVG Ct SIRT1 (EFT-400 tissues [3]; No UV): 26.45
AVG Ct TGFBI (EFT-400 tissues [3]; No UV): 22.04
AVG Ct THBS3 (EFT-400 tissues [3]; No UV): 29.09
AVG Ct TNC (EFT-400 tissues [3]; No UV): 22.12
AVG Ct VTN (EFT-400 tissues [3]; No UV): 32.74
expression of IL-1β elevated after UV exposure (EFT-400 tissues [3]; UV-irradiated): decrease in the expression
expression of IL-8 elevated after UV exposure (EFT-400 tissues [3]; UV-irradiated): decrease in the expression
expression of MMP-1 elevated after UV exposure (EFT-400 tissues [3]; UV-irradiated): decrease in the expression
levels of AQP3 RNA after UV exposure (EFT-400 tissues [3]; UV-irradiated): did not have an effect on AQP3 levels
reversing the UV-induced effects on gene expression (EFT-400 tissues [3]; UV-irradiated): most effective at reversing the UV-induced effects
UV-elevated levels of AQP3 (EFT-400 tissues [3]; UV-irradiated, genistein): did not have the same effect
AVG Ct ACTB (housekeeping gene) (EFT-400 tissues [3]; UVB + UVA): 18.85
AVG Ct AQP3 (EFT-400 tissues [3]; UVB + UVA): 23.01
AVG Ct BCL2L1 (EFT-400 tissues [3]; UVB + UVA): 23.79
AVG Ct COL1A1 (EFT-400 tissues [3]; UVB + UVA): 18.54
AVG Ct COL4A2 (EFT-400 tissues [3]; UVB + UVA): 21.82
AVG Ct COL5A1 (EFT-400 tissues [3]; UVB + UVA): 23.29
AVG Ct COL6A1 (EFT-400 tissues [3]; UVB + UVA): 19.47
AVG Ct COL6A2 (EFT-400 tissues [3]; UVB + UVA): 19.68
AVG Ct COL7A1 (EFT-400 tissues [3]; UVB + UVA): 24.97
AVG Ct COL8A1 (EFT-400 tissues [3]; UVB + UVA): 27.28
AVG Ct COL11A1 (EFT-400 tissues [3]; UVB + UVA): 27.6
AVG Ct COL12A1 (EFT-400 tissues [3]; UVB + UVA): 24.93
AVG Ct COL14A1 (EFT-400 tissues [3]; UVB + UVA): 25.69
AVG Ct COL15A1 (EFT-400 tissues [3]; UVB + UVA): 25.83
AVG Ct COL16A1 (EFT-400 tissues [3]; UVB + UVA): 23.98
AVG Ct CYP2E1 (EFT-400 tissues [3]; UVB + UVA): 29.69
AVG Ct DSG1 (EFT-400 tissues [3]; UVB + UVA): 21.03
AVG Ct ERCC1 (EFT-400 tissues [3]; UVB + UVA): 24.08
AVG Ct FN1 (EFT-400 tissues [3]; UVB + UVA): 20.79
AVG Ct GAPDH (housekeeping gene) (EFT-400 tissues [3]; UVB + UVA): 18.39
AVG Ct GDF15 (EFT-400 tissues [3]; UVB + UVA): 21.74
AVG Ct GSTM3 (EFT-400 tissues [3]; UVB + UVA): 28.37
AVG Ct HSPA8 (EFT-400 tissues [3]; UVB + UVA): 20.14
AVG Ct IL1A (EFT-400 tissues [3]; UVB + UVA): 25.87
AVG Ct IL1B (EFT-400 tissues [3]; UVB + UVA): 28.03
AVG Ct IL8 (EFT-400 tissues [3]; UVB + UVA): 20.61
AVG Ct KAL1 (EFT-400 tissues [3]; UVB + UVA): 31.72
AVG Ct KRT16 (EFT-400 tissues [3]; UVB + UVA): 17.92
AVG Ct LAMA1 (EFT-400 tissues [3]; UVB + UVA): 28.49
AVG Ct LAMA2 (EFT-400 tissues [3]; UVB + UVA): 25.42
AVG Ct LAMA3 (EFT-400 tissues [3]; UVB + UVA): 24.01
AVG Ct LAMA5 (EFT-400 tissues [3]; UVB + UVA): 27.71
AVG Ct LAMB1 (EFT-400 tissues [3]; UVB + UVA): 22.85
AVG Ct LAMB3 (EFT-400 tissues [3]; UVB + UVA): 24.92
AVG Ct LAMC1 (EFT-400 tissues [3]; UVB + UVA): 22.69
AVG Ct MMP1 (EFT-400 tissues [3]; UVB + UVA): 20.16
AVG Ct MMP2 (EFT-400 tissues [3]; UVB + UVA): 18.5
AVG Ct MT2A (EFT-400 tissues [3]; UVB + UVA): 16.4
AVG Ct PCNA (EFT-400 tissues [3]; UVB + UVA): 23.21
AVG Ct RPL13A (housekeeping gene) (EFT-400 tissues [3]; UVB + UVA): 20.68
AVG Ct SIRT1 (EFT-400 tissues [3]; UVB + UVA): 25.31
AVG Ct TGFBI (EFT-400 tissues [3]; UVB + UVA): 22.03
AVG Ct THBS3 (EFT-400 tissues [3]; UVB + UVA): 28.97
AVG Ct TNC (EFT-400 tissues [3]; UVB + UVA): 21.29
AVG Ct VTN (EFT-400 tissues [3]; UVB + UVA): 32.61
extent of gene expression changes in the absence of UV irradiation, compared to NELL1 (EFT-400 tissues [3]; no UV): more changes compared to NELL1
gene expression in the absence of UV irradiation (EFT-400 tissues [3]; no UV): some decreases in gene expression
